# In the supplement of paper PMC12420376:
# Assays:
# KURAMOCHI = test: drug sensitivity score (DSS2) on cancer cell count; higher = more sensitive; extreme values may be limits of the assay; conditions: 72 h
# In short: (§1)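 Cancer cell counts came from 10× images (4 fields) of fixed cells immunostained for CK8/18 with Hoechst. The ovarian cancer cells had been grown alone or in 1:1 direct co-culture with lung or skin fibroblasts on 384-well plates pre-spotted acoustically with 528 approved and investigational compounds at 5 concentrations, then treated for 72 h. Breeze was used to derive a drug sensitivity score from logistic fits of the data.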
# OVCAR8 = test: as above; conditions: 72 h
# In short: as §1
# [1] = co-cultured fibroblast: BJHTERT
# [2] = co-cultured fibroblast: none (monoculture)
Compound,drug sensitivity score (KURAMOCHI; [1]) [DSS],drug sensitivity score (KURAMOCHI; co-cultured fibroblast: WI38) [DSS],drug sensitivity score (KURAMOCHI; [2]) [DSS],drug sensitivity score (OVCAR8; [1]) [DSS],drug sensitivity score (OVCAR8; co-cultured fibroblast: WI38) [DSS],drug sensitivity score (OVCAR8; [2]) [DSS]
C[C@@H](Nc1cc(F)cc(F)c1)c1cc(C(=O)N(C)C)cc2c(=O)cc(N3CCOCC3)oc12 [AZD-8186],8.7,3.8,6.5,0,0,0.8
C[C@H](Nc1ncnc2nc[nH]c12)c1cc2cccc(Cl)c2c(=O)n1-c1ccccc1 [Duvelisib],4.6,0.5,0.3,0.4,0,0
Cc1c(Cn2c(C)nc3c(C(=O)O)cc(N4CCOCC4)cc32)cccc1C(F)(F)F,5.5,0.3,6.9,3.7,0,0
COc1cc2ncnc(Oc3cccc(NC(=O)Nc4cc(C(C)(C)C(F)(F)F)on4)c3)c2cc1OC,0,1.4,0,0,0,0.8
Cn1ncnc1[C@H]1c2n[nH]c(=O)c3cc(F)cc(c23)N[C@@H]1c1ccc(F)cc1 [Talazoparib],10.5,15,16.3,19.5,15.3,15.8
CC(=O)O[C@@]12CO[C@@H]1C[C@H](O)[C@@]1(C)C(=O)[C@H](O)C3=C(C)[C@@H](OC(=O)[C@H](O)[C@@H](NC(=O)OC(C)(C)C)c4ccccc4)C[C@@](O)([C@@H](OC(=O)c4ccccc4)[C@H]21)C3(C)C [Docetaxel],27.4,26.2,21.1,31.8,31.9,28.3
CC[C@@H]1[C@H](F)C(=O)N[C@@H]1COc1nccc2cc(C(N)=O)c(OC)cc12,3.7,1.8,1.9,2.4,10.1,4
Cn1cncc1[C@@](N)(c1ccc(Cl)cc1)c1ccc2c(c1)c(-c1cccc(Cl)c1)cc(=O)n2C [Tipifarnib],14.9,18.3,12.9,5.5,2.5,12.5
CC[C@@](C)(Nc1ccnc(-c2c[nH]c3ncccc23)n1)C(=O)NCC(F)(F)F [Decernotinib],0,3.3,0,0,0,0
CNC(=O)c1ccc2cc([C@@]3(O)CCn4cncc43)ccc2c1 [Orteronel],0,0,0.5,0,0.3,0
C[C@@H]1CN(CC(=O)Nc2ccc3c(c2)Cc2cccc(-c4cc(=O)cc(N5CCOCC5)o4)c2S3)C[C@H](C)O1,3.2,0.2,2.5,7.6,5.6,0.7
CC(C)n1cnc2c(NCCc3ccc(O)cc3)nc(-c3csc4ccccc34)nc21 [StemRegenin 1],4.3,2.8,1.7,2.8,0,1
COC(=O)C[C@](O)(CCCC(C)(C)O)C(=O)O[C@@H]1C(OC)=C[C@]23CCCN2CCc2cc4c(cc2[C@H]13)OCO4 [Omacetaxine],23.8,24.5,30.6,29.3,30.1,29.8
CN1C(=O)N[C@H](Cc2c[nH]c3c(Cl)cccc23)C1=O [Necrostatin 2],0,0,0,0,0,0
Cc1cc(Nc2cc(CN3CCOCC3)c3nc(C)c(Cc4ccc(Cl)cc4F)n3n2)n[nH]1 [Gandotinib],7.6,3.7,4,9,12.1,9.7
CCc1cncnc1N1CCN(Cc2nc3ccc(C(F)(F)F)cc3[nH]2)CC1,1,0,2.1,1.3,0,2.4
Cc1ccc(C(=O)N(CCCN)[C@@H](c2oc3cc(Cl)ccc3c(=O)c2Cc2ccccc2)C(C)C)cc1,8.3,17.2,14.6,5.2,7.6,29.1
COc1ccc(Cn2ccc3ccc(C(=O)NO)cc32)cc1,6.6,2.3,3.2,2.5,0.7,3
Cc1c(C(=O)Nc2ccc(N3C[C@@H](C)O[C@@H](C)C3)nc2)cccc1-c1ccc(OC(F)(F)F)cc1 [Sonidegib],0,0,0,0.6,0,0.6
CCOc1ccn(-c2ccc(F)cc2)c(=O)c1C(=O)Nc1ccc(Oc2ccnc(N)c2Cl)c(F)c1,0.6,0,0,0,0,0
COc1cc(C(=O)O)ccc1NC(=O)[C@@H]1N[C@@H](CC(C)(C)C)[C@](C#N)(c2ccc(Cl)cc2F)[C@H]1c1cccc(Cl)c1F [Idasanutlin],0,1.1,0,1.3,4.2,0
C[C@]12CC[C@@H]3c4ccc(O)cc4C[C@@H](CCCCCCCCC[S+]([O-])CCCC(F)(F)C(F)(F)F)[C@H]3[C@@H]1CC[C@@H]2O (stereo not given in full) [Fulvestrant],0,0,0,0,7.2,0
CCn1c(=O)c(-c2ccc(Cl)cc2Cl)cc2cnc(Nc3ccc(N4CCNCC4)c(F)c3)nc21 [FRAX486],9.7,4.9,9.2,5.8,9.8,13.1
CCS(=O)(=O)c1cccc(-c2cc(C(=O)NC3CCN(C)CC3)c(C)c3[nH]c4ncc(C)cc4c23)c1 [TAK-901],11.8,15,13.7,9.4,8.3,7.1
Cn1cc(C2=Nc3cc(NC(=O)C(N)C4CCCCC4)cc4c3C2=CNNC4=O)cn1 (stereo not given),14.6,12.1,21,16.2,13,16.7
